Experimental data taken from US20110294782A1, “SMALL MOLECULE PAK INHIBITORS” (Massachusetts Institute of Technology, priority 2006, published 2011).
pKd: −log10 of the molar value. Read-outs that look alike come from different tables or passages of the source.

Tests used:
PAK2 = molecular target: T1, PAK2 (Homo sapiens, UniProt Q13177); assay: Competitive binding assay (Ambit), phage-displayed PAK vs immobilized staurosporine bait
T1 construct: full length PAK or a PAK catalytic domain expressed on the surface of T7 bacteriophage; host or cells: T7 phage (modified T7 Select 10-3) grown in a BL21-derived E. coli host
Excerpt: (§1) Binding data were fit to the equation:
(§2) PFU=L+((H−L)*(Kd(test)/(Kd(test)+[candidate])))

PAK1 = molecular target: T2, PAK1 (Homo sapiens, UniProt Q13153); assay: as above
T2 construct: full length PAK or a PAK catalytic domain expressed on the surface of T7 bacteriophage; host or cells: T7 phage (modified T7 Select 10-3) grown in a BL21-derived E. coli host
Excerpt: as §1, §2

PAK6 = molecular target: T3, PAK6 (Homo sapiens, UniProt Q9NQU5); assay: as above; conditions: 25° C., 1 hour, 0.1% DMSO, read-out: Kd value, Test PAK Inhibitor Affinity Assay
T3 construct: full length PAK or a PAK catalytic domain expressed on the surface of T7 bacteriophage; host or cells: T7 phage (modified T7 Select 10-3) grown in a BL21-derived E. coli host
Excerpt: as §1, §2

PAK7 = molecular target: T4, PAK7 (Homo sapiens, UniProt Q9P286); assay: as above; conditions: 25° C., 1 hour, 0.1% DMSO, read-out: Kd value, Test PAK Inhibitor Affinity Assay
T4 construct: full length PAK or a PAK catalytic domain expressed on the surface of T7 bacteriophage; host or cells: T7 phage (modified T7 Select 10-3) grown in a BL21-derived E. coli host
Excerpt: as §1, §2

PAK4 = PAK4 (Homo sapiens, UniProt O96013); assay: biochemical
Chain of PAK4 (O96013 whole entry): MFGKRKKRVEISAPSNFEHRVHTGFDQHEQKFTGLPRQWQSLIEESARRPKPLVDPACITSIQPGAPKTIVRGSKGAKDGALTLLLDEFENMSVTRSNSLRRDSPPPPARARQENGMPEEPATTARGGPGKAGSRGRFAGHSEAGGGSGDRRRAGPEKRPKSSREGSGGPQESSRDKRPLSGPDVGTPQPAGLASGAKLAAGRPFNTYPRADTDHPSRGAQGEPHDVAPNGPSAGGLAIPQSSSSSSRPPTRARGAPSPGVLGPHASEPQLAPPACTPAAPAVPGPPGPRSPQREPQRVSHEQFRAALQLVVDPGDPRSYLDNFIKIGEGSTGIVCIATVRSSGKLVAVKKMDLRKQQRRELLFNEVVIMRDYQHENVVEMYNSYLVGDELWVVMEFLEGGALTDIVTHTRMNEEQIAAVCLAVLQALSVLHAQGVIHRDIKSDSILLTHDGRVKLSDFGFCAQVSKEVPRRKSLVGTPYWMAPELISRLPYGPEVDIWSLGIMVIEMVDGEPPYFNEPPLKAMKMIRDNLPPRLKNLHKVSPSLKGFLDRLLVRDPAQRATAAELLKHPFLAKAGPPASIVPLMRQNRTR
Experimental: When these three components are combined, the test substance is tested for its ability to compete, in a concentration-dependent manner, with the immobilized kinase bait probe for binding for binding to the phage-PAK catalytic domain. Afterwards, the amount of bait probe-bound phage-PAK can be detected, for example, by a phage plaque assay and/or quantitative PCR of phage DNA. The amount of probe-bound phage-PAK is inversely proportional to the affinity of the candidate inhibitor for the kinase and can be used in determining a Kd value of the test substance for the PAK catalytic site, as described below. […]
T7 kinase-tagged phage strains were grown in parallel in 24- or 96-well blocks in an E. coli host derived from the BL21 strain. […] Phage titer in the eluates was measured by standard plaque assays or by quantitative PCR. […]
Kd (probe) is the binding constant for the interaction between the kinase and the immobilized ligand, [Probe] is the concentration of the immobilized ligand [test] ½ is the concentration of the free candidate compound at the midpoint of the transition. […] Under these conditions, binding constants measured for the interaction between kinases and candidate compounds (Kd (test)) are therefore independent of the affinity of the immobilized ligand for the kinase (Kd (probe)). […]

T1 sequence (Q13177 whole entry, the tested form may be a part): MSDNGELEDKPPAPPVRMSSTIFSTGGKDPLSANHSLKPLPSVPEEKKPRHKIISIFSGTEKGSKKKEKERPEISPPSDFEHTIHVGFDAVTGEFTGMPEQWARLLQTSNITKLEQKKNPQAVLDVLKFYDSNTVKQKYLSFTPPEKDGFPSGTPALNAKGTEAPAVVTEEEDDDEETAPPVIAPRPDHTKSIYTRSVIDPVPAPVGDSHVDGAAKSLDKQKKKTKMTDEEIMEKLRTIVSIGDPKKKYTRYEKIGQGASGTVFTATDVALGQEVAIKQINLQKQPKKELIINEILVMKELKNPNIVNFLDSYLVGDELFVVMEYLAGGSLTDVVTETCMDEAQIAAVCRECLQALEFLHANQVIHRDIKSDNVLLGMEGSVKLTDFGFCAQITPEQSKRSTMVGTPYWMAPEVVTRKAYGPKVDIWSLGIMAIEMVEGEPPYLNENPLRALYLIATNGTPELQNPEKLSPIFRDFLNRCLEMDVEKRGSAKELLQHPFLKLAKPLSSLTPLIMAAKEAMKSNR
T3 sequence (Q9NQU5 whole entry, the tested form may be a part): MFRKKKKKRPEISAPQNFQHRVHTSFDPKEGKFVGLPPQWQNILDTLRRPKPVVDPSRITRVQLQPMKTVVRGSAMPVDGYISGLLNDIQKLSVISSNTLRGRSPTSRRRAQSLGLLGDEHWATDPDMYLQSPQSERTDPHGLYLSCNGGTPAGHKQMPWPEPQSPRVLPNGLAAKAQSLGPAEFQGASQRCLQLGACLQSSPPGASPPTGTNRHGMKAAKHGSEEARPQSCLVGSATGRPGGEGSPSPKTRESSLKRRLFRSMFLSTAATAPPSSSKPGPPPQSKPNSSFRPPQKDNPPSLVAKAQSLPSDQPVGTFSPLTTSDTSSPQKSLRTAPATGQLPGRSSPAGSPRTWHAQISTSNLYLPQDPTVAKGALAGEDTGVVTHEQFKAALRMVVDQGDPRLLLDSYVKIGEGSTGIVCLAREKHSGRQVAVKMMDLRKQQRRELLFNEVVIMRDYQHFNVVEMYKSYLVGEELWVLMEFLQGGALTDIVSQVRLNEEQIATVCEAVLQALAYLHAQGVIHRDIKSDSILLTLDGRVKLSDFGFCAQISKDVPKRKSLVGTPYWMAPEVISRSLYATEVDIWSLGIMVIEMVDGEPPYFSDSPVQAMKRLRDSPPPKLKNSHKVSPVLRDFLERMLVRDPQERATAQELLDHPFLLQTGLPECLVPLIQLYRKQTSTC
T2 sequence (Q13153 whole entry, the tested form may be a part): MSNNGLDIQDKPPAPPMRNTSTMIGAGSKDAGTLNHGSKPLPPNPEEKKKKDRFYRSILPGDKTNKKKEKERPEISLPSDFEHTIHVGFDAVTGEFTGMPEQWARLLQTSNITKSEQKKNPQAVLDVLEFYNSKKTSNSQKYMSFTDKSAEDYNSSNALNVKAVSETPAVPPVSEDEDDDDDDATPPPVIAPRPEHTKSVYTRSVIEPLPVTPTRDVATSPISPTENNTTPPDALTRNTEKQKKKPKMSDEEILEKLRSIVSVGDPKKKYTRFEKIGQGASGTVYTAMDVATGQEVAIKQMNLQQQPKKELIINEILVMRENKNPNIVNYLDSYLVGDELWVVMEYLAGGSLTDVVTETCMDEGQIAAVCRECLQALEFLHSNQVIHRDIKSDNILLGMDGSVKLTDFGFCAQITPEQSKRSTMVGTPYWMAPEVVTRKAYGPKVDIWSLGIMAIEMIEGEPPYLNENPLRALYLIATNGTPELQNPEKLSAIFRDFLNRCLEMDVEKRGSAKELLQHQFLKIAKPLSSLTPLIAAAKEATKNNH
T4 sequence (Q9P286 whole entry, the tested form may be a part): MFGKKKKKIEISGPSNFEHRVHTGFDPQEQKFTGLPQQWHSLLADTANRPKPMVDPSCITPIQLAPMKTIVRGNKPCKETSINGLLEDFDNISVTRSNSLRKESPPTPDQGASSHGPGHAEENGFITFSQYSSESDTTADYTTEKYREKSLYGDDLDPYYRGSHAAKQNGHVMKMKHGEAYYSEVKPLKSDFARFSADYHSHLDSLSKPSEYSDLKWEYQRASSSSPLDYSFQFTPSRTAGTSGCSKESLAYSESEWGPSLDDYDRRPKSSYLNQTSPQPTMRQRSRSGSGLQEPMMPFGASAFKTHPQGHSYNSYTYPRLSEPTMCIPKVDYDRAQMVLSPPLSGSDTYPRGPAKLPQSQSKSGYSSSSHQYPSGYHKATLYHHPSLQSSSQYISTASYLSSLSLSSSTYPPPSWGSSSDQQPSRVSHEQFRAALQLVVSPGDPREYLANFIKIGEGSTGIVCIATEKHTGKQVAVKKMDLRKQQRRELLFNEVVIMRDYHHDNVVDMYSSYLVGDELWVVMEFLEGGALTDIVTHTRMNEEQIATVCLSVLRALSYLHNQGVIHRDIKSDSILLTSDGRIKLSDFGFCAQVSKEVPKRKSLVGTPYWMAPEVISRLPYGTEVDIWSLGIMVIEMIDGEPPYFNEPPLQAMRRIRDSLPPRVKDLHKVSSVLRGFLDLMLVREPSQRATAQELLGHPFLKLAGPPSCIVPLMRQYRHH

Row | SMILES | pKd (PAK2) | pKd (PAK1) | pKd (PAK6) | pKd (PAK2; PAK2, 25° C., 1 hour, 0.1% DMSO, read-out: Kd value, Test PAK Inhibitor Affinity Assay) | pKd (PAK1; PAK1, 25° C., 1 hour, 0.1% DMSO, read-out: Kd value, Test PAK Inhibitor Affinity Assay) | pKd (PAK7) | pKd (PAK4)
1 | Nc1nc(Nc2ccc(S(N)(=O)=O)cc2)nn1C(=O)c1c(F)cccc1F [JNJ-7706621] | ≤ 5.00 | ≤ 5.00 | > 5.30 | – | – | – | –
2 | CCOc1cc2ncc(C#N)c(Nc3ccc(F)c(Cl)c3)c2cc1NC(=O)/C=C/CN(C)C [EKB-569] | – | – | ≤ 5.00 | ≤ 5.00 | > 5.30 | ≤ 5.00 | ≤ 5.00
